Experimental data as given in patent US4464385A, “Treatment of diabetic complications with hydantoins” (Alcon Laboratories, Inc., priority 1982, dated 1984).

Test system: cataracts in rats
Test: Prevention or retardation of cataracts in galactose-fed rats
Assay type: in vivo, rat
Conditions: 30% galactose diet, A,C,E 0.0025%, B,D 0.01%
Method: The compounds to be tested were:
Test compound/diet mixtures were formulated as follows: […]
Similarly, the 0.01% level was designed to provide a drug concentration of 20 mg per kilogram per day.
All animals were fed the Purina Laboratory Chow and water, ad libitum for a two day acclimatization period. The indicated test compound/diet mixture then was introduced to all animals on Study Day 1 and the animals were maintained on this diet throughout thirty days of the study.
Sufficient amounts of test compound/diet mixture were maintained in the food hoppers to allow the animals to eat ad libitum. All aliquots of test compound/diet mixture added to the food hoopers were weighed and the weights, as well as day of addition, recorded.
Twelve animals were assigned to each treatment with each compound at the indicated percentage by total weight of feed. All eyes were examined with a handheld ophthalmoscope and/or penlight.

CSc1ccc2c(c1)C1(CCO2)NC(=O)NC1=O (stereo not drawn) [A]
% of Total Eyes, + (vacuole) (Study Day 2): 0%
% of Total Eyes, - (Normal) (Study Day 2): 100.0%
% of Total Eyes, N (nuclear cataract) (Study Day 2): 0%
% of Total Eyes, S (snowflake) (Study Day 2): 0%
Number of Eyes Observed, + (vacuole) (Study Day 2): 0 eyes
Number of Eyes Observed, - (Normal) (Study Day 2): 24 eyes
Number of Eyes Observed, N (nuclear cataract) (Study Day 2): 0 eyes
Number of Eyes Observed, S (snowflake) (Study Day 2): 0 eyes
Number of Eyes Observed, ± (Study Day 2): 0 eyes
% of Total Eyes, + (vacuole) (Study Day 3): 0%
% of Total Eyes, - (Normal) (Study Day 3): 100.0%
% of Total Eyes, N (nuclear cataract) (Study Day 3): 0%
% of Total Eyes, S (snowflake) (Study Day 3): 0%
Number of Eyes Observed, + (vacuole) (Study Day 3): 0 eyes
Number of Eyes Observed, - (Normal) (Study Day 3): 24 eyes
Number of Eyes Observed, N (nuclear cataract) (Study Day 3): 0 eyes
Number of Eyes Observed, S (snowflake) (Study Day 3): 0 eyes
Number of Eyes Observed, ± (Study Day 3): 0 eyes
% of Total Eyes, + (vacuole) (Study Day 4): 0%
% of Total Eyes, - (Normal) (Study Day 4): 79.2%
% of Total Eyes, N (nuclear cataract) (Study Day 4): 0%
% of Total Eyes, S (snowflake) (Study Day 4): 0%
Number of Eyes Observed, + (vacuole) (Study Day 4): 0 eyes
Number of Eyes Observed, - (Normal) (Study Day 4): 19 eyes
Number of Eyes Observed, N (nuclear cataract) (Study Day 4): 0 eyes
Number of Eyes Observed, S (snowflake) (Study Day 4): 0 eyes
Number of Eyes Observed, ± (Study Day 4): 5 eyes
% of Total Eyes, + (vacuole) (Study Day 5): 16.7%
% of Total Eyes, - (Normal) (Study Day 5): 8.3%
% of Total Eyes, N (nuclear cataract) (Study Day 5): 0%
% of Total Eyes, S (snowflake) (Study Day 5): 0%
Number of Eyes Observed, + (vacuole) (Study Day 5): 4 eyes
Number of Eyes Observed, - (Normal) (Study Day 5): 2 eyes
Number of Eyes Observed, N (nuclear cataract) (Study Day 5): 0 eyes
Number of Eyes Observed, S (snowflake) (Study Day 5): 0 eyes
Number of Eyes Observed, ± (Study Day 5): 18 eyes
% of Total Eyes, + (vacuole) (Study Day 6): 58.4%
% of Total Eyes, - (Normal) (Study Day 6): 8.3%
% of Total Eyes, N (nuclear cataract) (Study Day 6): 0%
% of Total Eyes, S (snowflake) (Study Day 6): 0%
Number of Eyes Observed, + (vacuole) (Study Day 6): 14 eyes
Number of Eyes Observed, - (Normal) (Study Day 6): 2 eyes
Number of Eyes Observed, N (nuclear cataract) (Study Day 6): 0 eyes
Number of Eyes Observed, S (snowflake) (Study Day 6): 0 eyes
Number of Eyes Observed, ± (Study Day 6): 8 eyes
% of Total Eyes, + (vacuole) (Study Day 8): 66.7%
% of Total Eyes, - (Normal) (Study Day 8): 8.3%
% of Total Eyes, N (nuclear cataract) (Study Day 8): 0%
% of Total Eyes, S (snowflake) (Study Day 8): 0%
Number of Eyes Observed, + (vacuole) (Study Day 8): 16 eyes
Number of Eyes Observed, - (Normal) (Study Day 8): 2 eyes
Number of Eyes Observed, N (nuclear cataract) (Study Day 8): 0 eyes
Number of Eyes Observed, S (snowflake) (Study Day 8): 0 eyes
Number of Eyes Observed, ± (Study Day 8): 6 eyes
% of Total Eyes, + (vacuole) (Study Day 10): 62.5%
% of Total Eyes, - (Normal) (Study Day 10): 8.3%
% of Total Eyes, N (nuclear cataract) (Study Day 10): 0%
% of Total Eyes, S (snowflake) (Study Day 10): 12.5%
Number of Eyes Observed, + (vacuole) (Study Day 10): 15 eyes
Number of Eyes Observed, - (Normal) (Study Day 10): 2 eyes
Number of Eyes Observed, N (nuclear cataract) (Study Day 10): 0 eyes
Number of Eyes Observed, S (snowflake) (Study Day 10): 3 eyes
Number of Eyes Observed, ± (Study Day 10): 4 eyes
% of Total Eyes, + (vacuole) (Study Day 12): 70.8%
% of Total Eyes, - (Normal) (Study Day 12): 0%
% of Total Eyes, N (nuclear cataract) (Study Day 12): 0%
% of Total Eyes, S (snowflake) (Study Day 12): 16.7%
Number of Eyes Observed, + (vacuole) (Study Day 12): 17 eyes
Number of Eyes Observed, - (Normal) (Study Day 12): 0 eyes
Number of Eyes Observed, N (nuclear cataract) (Study Day 12): 0 eyes
Number of Eyes Observed, S (snowflake) (Study Day 12): 4 eyes
Number of Eyes Observed, ± (Study Day 12): 3 eyes
% of Total Eyes, + (vacuole) (Study Day 14): 66.7%
% of Total Eyes, - (Normal) (Study Day 14): 0%
% of Total Eyes, N (nuclear cataract) (Study Day 14): 0%
% of Total Eyes, S (snowflake) (Study Day 14): 29.2%
Number of Eyes Observed, + (vacuole) (Study Day 14): 16 eyes
Number of Eyes Observed, - (Normal) (Study Day 14): 0 eyes
Number of Eyes Observed, N (nuclear cataract) (Study Day 14): 0 eyes
Number of Eyes Observed, S (snowflake) (Study Day 14): 7 eyes
Number of Eyes Observed, ± (Study Day 14): 1 eyes
% of Total Eyes, + (vacuole) (Study Day 16): 50.0%
% of Total Eyes, - (Normal) (Study Day 16): 0%
% of Total Eyes, N (nuclear cataract) (Study Day 16): 0%
% of Total Eyes, S (snowflake) (Study Day 16): 50.0%
Number of Eyes Observed, + (vacuole) (Study Day 16): 12 eyes
Number of Eyes Observed, - (Normal) (Study Day 16): 0 eyes
Number of Eyes Observed, N (nuclear cataract) (Study Day 16): 0 eyes
Number of Eyes Observed, S (snowflake) (Study Day 16): 12 eyes
Number of Eyes Observed, ± (Study Day 16): 0 eyes
% of Total Eyes, + (vacuole) (Study Day 18): 33.3%
% of Total Eyes, - (Normal) (Study Day 18): 0%
% of Total Eyes, N (nuclear cataract) (Study Day 18): 0%
% of Total Eyes, S (snowflake) (Study Day 18): 66.7%
Number of Eyes Observed, + (vacuole) (Study Day 18): 8 eyes
Number of Eyes Observed, - (Normal) (Study Day 18): 0 eyes
Number of Eyes Observed, N (nuclear cataract) (Study Day 18): 0 eyes
Number of Eyes Observed, S (snowflake) (Study Day 18): 16 eyes
Number of Eyes Observed, ± (Study Day 18): 0 eyes
% of Total Eyes, + (vacuole) (Study Day 20): 25.0%
% of Total Eyes, - (Normal) (Study Day 20): 0%
% of Total Eyes, N (nuclear cataract) (Study Day 20): 0%
% of Total Eyes, S (snowflake) (Study Day 20): 75.0%
Number of Eyes Observed, + (vacuole) (Study Day 20): 6 eyes
Number of Eyes Observed, - (Normal) (Study Day 20): 0 eyes
Number of Eyes Observed, N (nuclear cataract) (Study Day 20): 0 eyes
Number of Eyes Observed, S (snowflake) (Study Day 20): 18 eyes
Number of Eyes Observed, ± (Study Day 20): 0 eyes
% of Total Eyes, + (vacuole) (Study Day 22): 25.0%
% of Total Eyes, - (Normal) (Study Day 22): 0%
% of Total Eyes, N (nuclear cataract) (Study Day 22): 0%
% of Total Eyes, S (snowflake) (Study Day 22): 75.0%
Number of Eyes Observed, + (vacuole) (Study Day 22): 6 eyes
Number of Eyes Observed, - (Normal) (Study Day 22): 0 eyes
Number of Eyes Observed, N (nuclear cataract) (Study Day 22): 0 eyes
Number of Eyes Observed, S (snowflake) (Study Day 22): 18 eyes
Number of Eyes Observed, ± (Study Day 22): 0 eyes
% of Total Eyes, + (vacuole) (Study Day 24): 16.7%
% of Total Eyes, - (Normal) (Study Day 24): 0%
% of Total Eyes, N (nuclear cataract) (Study Day 24): 0%
% of Total Eyes, S (snowflake) (Study Day 24): 83.3%
Number of Eyes Observed, + (vacuole) (Study Day 24): 4 eyes
Number of Eyes Observed, - (Normal) (Study Day 24): 0 eyes
Number of Eyes Observed, N (nuclear cataract) (Study Day 24): 0 eyes
Number of Eyes Observed, S (snowflake) (Study Day 24): 20 eyes
Number of Eyes Observed, ± (Study Day 24): 0 eyes
% of Total Eyes, + (vacuole) (Study Day 26): 8.3%
% of Total Eyes, - (Normal) (Study Day 26): 0%
% of Total Eyes, N (nuclear cataract) (Study Day 26): 0%
% of Total Eyes, S (snowflake) (Study Day 26): 91.7%
Number of Eyes Observed, + (vacuole) (Study Day 26): 2 eyes
Number of Eyes Observed, - (Normal) (Study Day 26): 0 eyes
Number of Eyes Observed, N (nuclear cataract) (Study Day 26): 0 eyes
Number of Eyes Observed, S (snowflake) (Study Day 26): 22 eyes
Number of Eyes Observed, ± (Study Day 26): 0 eyes
% of Total Eyes, + (vacuole) (Study Day 28): 8.3%
% of Total Eyes, - (Normal) (Study Day 28): 0%
% of Total Eyes, N (nuclear cataract) (Study Day 28): 8.3%
% of Total Eyes, S (snowflake) (Study Day 28): 83.3%
Number of Eyes Observed, + (vacuole) (Study Day 28): 2 eyes
Number of Eyes Observed, - (Normal) (Study Day 28): 0 eyes
Number of Eyes Observed, N (nuclear cataract) (Study Day 28): 2 eyes
Number of Eyes Observed, S (snowflake) (Study Day 28): 20 eyes
Number of Eyes Observed, ± (Study Day 28): 0 eyes
% of Total Eyes, + (vacuole) (Study Day 30): 4.2%
% of Total Eyes, - (Normal) (Study Day 30): 0%
% of Total Eyes, N (nuclear cataract) (Study Day 30): 12.5%
% of Total Eyes, S (snowflake) (Study Day 30): 83.3%
Number of Eyes Observed, + (vacuole) (Study Day 30): 1 eyes
Number of Eyes Observed, - (Normal) (Study Day 30): 0 eyes
Number of Eyes Observed, N (nuclear cataract) (Study Day 30): 3 eyes
Number of Eyes Observed, S (snowflake) (Study Day 30): 20 eyes
Number of Eyes Observed, ± (Study Day 30): 0 eyes
